The subject of this data set is Osteoblasts (Calvarial cells). The settings on record: ICR, mouse, 72 h, 1 μM.
For the compound `Cc1nccn1-c1ccc([N+](=O)[O-])c(Nc2cccc(N)c2)n1` [Compound 85, 2-[3-(amino)phenylamino]-6-[(2-methyl)imidazol-1-yl]-3-nitropyridine], the “Cell viability (%) Calvarial cell” value stood at 101%. To `CC(C)CNc1ccc([N+](=O)[O-])c(Nc2ccc(-n3ccnc3)cc2)n1` [Compound 88, 2-[4-(imidazol-1-yl)phenylamino]-6-(isobutylamino)-3-nitropyridine] belongs 96%; to `CC(=O)c1cccc(Nc2nc(NCC(C)C)ccc2[N+](=O)[O-])c1` [Compound 98, 2-(3-acetylphenylamino)-6-(isobutylamino)-3-nitropyridine], 92%; to `CC(C)Nc1ccc([N+](=O)[O-])c(Nc2ccc(N3CCOCC3)cc2)n1` [Compound 109, 2-(4-morpholinophenylamino)-6-(isopropylamino)-3-nitropyridine], 101%. In the case of `CC(C)c1nccn1-c1ccc([N+](=O)[O-])c(Nc2ccc(N3CCOCC3)cc2)n1` [Compound 114, 2-(4-morpholinophenylamino)-6-[(2-isopropyl)imidazol-1-yl]-3-nitropyridine], the “Cell viability (%) Calvarial cell” value turned out to be 92%. To `O=[N+]([O-])c1ccc(NCc2ccncc2)nc1Nc1ccc(N2CCOCC2)cc1` [Compound 116, 2-(4-morpholinophenylamino)-6-[(4-pyridyl)methylamino]-3-nitropyridine] belongs 89%. As for `CC(C)(C)Nc1ccc([N+](=O)[O-])c(Nc2ccc(N3CCOCC3)cc2)n1` [Compound 117, 2-(4-morpholinophenylamino)-6-(t-butylamino)-3-nitropyridine], the “Cell viability (%) Calvarial cell” value is on record as 90%. Regarding `CNc1ccc([N+](=O)[O-])c(Nc2ccc(F)c(F)c2)n1` [Compound 122, 2-[(3,4-difluoro)phenylamino]-6-(methylamino)-3-nitropyridine], the “Cell viability (%) Calvarial cell” value amounted to 121%. As for `CC(C)Nc1ccc([N+](=O)[O-])c(Nc2ccc(F)c(F)c2)n1` [Compound 123, 2-[(3,4-difluoro)phenylamino]-6-(isopropylamino)-3-nitropyridine], the “Cell viability (%) Calvarial cell” value amounted to 112%.

Consider `CC(C)CNc1ccc([N+](=O)[O-])c(Nc2ccc(F)c(F)c2)n1` [Compound 124, 2-[(3,4-difluoro)phenylamino]-6-(isobutylamino)-3-nitropyridine], for which the “Cell viability (%) Calvarial cell” value is reported as 106%.

On to `O=[N+]([O-])c1ccc(N2CCC(O)CC2)nc1Nc1ccc(F)c(F)c1` [Compound 126, 2-[(3,4-difluoro)phenylamino]-6-(4-hydroxypiperidino)-3-nitropyridine], for which the “Cell viability (%) Calvarial cell” value turned out to be 95%.

For the compound `CN1CCN(c2ccc([N+](=O)[O-])c(Nc3ccc(F)c(F)c3)n2)CC1` [Compound 128, 2-[(3,4-difluoro)phenylamino]-6-(4-methylpiperazin-1-yl)-3-nitropyridine], the “Cell viability (%) Calvarial cell” value worked out at 87%.

With `O=[N+]([O-])c1ccc(N2CCOCC2)nc1Nc1ccc(F)c(F)c1` [Compound 129, 2-[(3,4-difluoro)phenylamino]-6-morpholino-3-nitropyridine], the “Cell viability (%) Calvarial cell” value is 88%. `NC1CCN(c2ccc([N+](=O)[O-])c(Nc3ccc(F)c(F)c3)n2)CC1` [Compound 130, 2-[(3,4-difluoro)phenylamino]-6-(4-aminopiperidino)-3-nitropyridine]: the “Cell viability (%) Calvarial cell” value is 101%. `O=[N+]([O-])c1ccc(NCc2ccncc2)nc1Nc1ccc(F)c(F)c1` [Compound 131, 2-[(3,4-difluoro)phenylamino]-6-[(4-pyridyl)methylamino]-3-nitropyridine]: the “Cell viability (%) Calvarial cell” value turned out to be 100%. As to `O=[N+]([O-])c1ccc(N2CCC(O)CC2)nc1Nc1ccc(-c2csc(C3CCCCC3)n2)cc1` [Compound 155, 2-[4-(2-cyclohexylthiazol-4-yl)phenylamino]-6-(4-hydroxypiperidino)-3-nitropyridine], the “Cell viability (%) Calvarial cell” value came to 105%. As for `CC(C)c1nccn1-c1ccc([N+](=O)[O-])c(Nc2ccc(-c3csc(C4CCCCC4)n3)cc2)n1` [Compound 157, 2-[4-(2-cyclohexylthiazol-4-yl)phenylamino]-6-[(2-isopropyl)imidazol-1-yl]-3-nitropyridine], the “Cell viability (%) Calvarial cell” value is listed as 115%. Regarding `O=[N+]([O-])c1ccc(N2CCNCC2)nc1Nc1ccc(-c2csc(C3CCCCC3)n2)cc1` [Compound 158, 2-[4-(2-cyclohexylthiazol-4-yl)phenylamino]-6-(piperazin-1-yl)-3-nitropyridine], the “Cell viability (%) Calvarial cell” value came out at 88%.

With `O=[N+]([O-])c1ccc(N2CCOCC2)nc1Nc1ccc(-c2csc(C3CCCCC3)n2)cc1` [Compound 160, 2-[4-(2-cyclohexylthiazol-4-yl)phenylamino]-6-morpholino-3-nitropyridine], the “Cell viability (%) Calvarial cell” value worked out at 105%. To `O=[N+]([O-])c1ccc(NCc2cccnc2)nc1Nc1ccc(-c2csc(C3CCCCC3)n2)cc1` [Compound 162, 2-[4-(2-cyclohexylthiazol-4-yl)phenylamino]-6-[(3-pyridyl)methylamino]-3-nitropyridine] belongs 67%; to `O=[N+]([O-])c1ccc(NCCc2ccccn2)nc1Nc1ccc(-c2csc(C3CCCCC3)n2)cc1` [Compound 164, 2-[4-(2-cyclohexylthiazol-4-yl)phenylamino]-6-[2-(2-pyridyl)ethylamino]-3-nitropyridine], 104%. To `CCCCNc1ccc([N+](=O)[O-])c(Nc2ccc(-c3csc(C4CCCCC4)n3)cc2)n1` [Compound 165, 2-[4-(2-cyclohexylthiazol-4-yl)phenylamino]-6-(n-butylamino)-3-nitropyridine] belongs 102%.
